Laboratory results reported in US8889874B2, “Imidazolone-chalcone derivatives as potential anticancer agent and process for the preparation thereof” (Council of Scientific and Industrial Research, priority 2010, dated 2014).
Like-named read-outs stand apart in the source and are kept apart here.

Assays:
Experiment in all cases: NCI anticancer screen, SRB assay, 48 h
Type in all cases: cell-based, human
[1] = test system: 786-0 (renal); details: Homo sapiens
In short: (§1)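 Sulforhodamine B protein assay read cell growth after 48 h of continuous compound exposure. Dose-response curves per cell line used at least five 10-fold-diluted concentrations, within a panel of fifty-three human lines from nine tumour types.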

[2] = test system: ACHN (renal); details: Homo sapiens
In short: as §1

[3] = test system: HCT-116 (colon); details: Homo sapiens
In short: as §1

[4] = test system: HOP-62 (non-small cell lung); details: Homo sapiens
In short: as §1

[5] = test system: HS 578T (breast); details: Homo sapiens
In short: as §1

[6] = test system: HT29 (colon); details: Homo sapiens
In short: as §1

[7] = test system: K-562 (leukemia cell line); details: Homo sapiens
In short: as §1

[8] = test system: LOX IMVI (melanoma); details: Homo sapiens
In short: as §1

[9] = test system: M14 (melanoma); details: Homo sapiens
In short: as §1

[10] = test system: MALME-3M (melanoma); details: Homo sapiens
In short: as §1

[11] = test system: MCF7 (breast); details: Homo sapiens
In short: as §1

[12] = test system: MDA-MB-231/ATCC (breast); details: Homo sapiens
In short: as §1

[13] = test system: NCI-H226 (non-small cell lung); details: Homo sapiens
In short: as §1

[14] = test system: NCI-H460 (non-small cell lung); details: Homo sapiens
In short: as §1

[15] = test system: NCI/ADR-RES (ovarian); details: Homo sapiens, NCI/ADR-RES
In short: as §1

[16] = test system: OVCAR-4 (ovarian); details: Homo sapiens
In short: as §1

[17] = test system: OVCAR-8 (ovarian); details: Homo sapiens
In short: as §1

[18] = test system: RPMI-8226 (leukemia cell line); details: Homo sapiens
In short: as §1

[19] = test system: RXF 393 (renal); details: Homo sapiens
In short: as §1

[20] = test system: SF-268 (CNS); details: Homo sapiens
In short: as §1

[21] = test system: SF-295 (CNS); details: Homo sapiens
In short: as §1

[22] = test system: SK-MEL-28 (melanoma); details: Homo sapiens
In short: as §1

[23] = test system: SK-OV-3 (ovarian); details: Homo sapiens
In short: as §1

[24] = test system: SNB-19 (CNS); details: Homo sapiens
In short: as §1

[25] = test system: SNB-75 (CNS); details: Homo sapiens
In short: as §1

[26] = test system: SW-620 (colon); details: Homo sapiens
In short: as §1

[27] = test system: U251 (CNS); details: Homo sapiens
In short: as §1

[28] = test system: UACC-257 (melanoma); details: Homo sapiens
In short: as §1

[29] = test system: UACC-62 (melanoma); details: Homo sapiens
In short: as §1

[30] = 48 h exposure, SRB, read-out: GI50
[31] = read-out: pGI50 (-log of molar concentration causing 50% inhibition of net cell growth) (converted)
[32] = HT-29, 48 h exposure, SRB, read-out: GI50
[33] = HT-29, read-out: pGI50 (-log of molar concentration causing 50% inhibition of net cell growth) (converted)
[34] = K562, 48 h exposure, SRB, read-out: GI50
[35] = K562, read-out: pGI50 (-log of molar concentration causing 50% inhibition of net cell growth) (converted)
[36] = Malme-3M, read-out: pGI50 (-log of molar concentration causing 50% inhibition of net cell growth) (converted)
[37] = MALME-3M, 48 h exposure, SRB, read-out: GI50
[38] = NCl/ADR-RES, 48 h exposure, SRB, read-out: GI50
[39] = RXF 393, 48 h exposure, SRB, read-out: GI50
[40] = RXF-393, read-out: pGI50 (-log of molar concentration causing 50% inhibition of net cell growth) (converted)
[41] = U-251, 48 h exposure, SRB, read-out: GI50
[42] = U-251, read-out: pGI50 (-log of molar concentration causing 50% inhibition of net cell growth) (converted)

For `COc1ccc(-c2cn(-c3cccc(C(=O)/C=C/c4ccc(O)c(OC)c4)c3)c(=O)[nH]2)cc1` [3b, 1-3-[(E)-3-(4-hydroxy-3-methoxyphenyl)-2-propenoyl]phenyl-4-(4-methoxyphenyl)-2,3-dihydro-1H-2-imidazolone], the GI50 [1, 30] was 4.53 µM, the GI50 [1, 31] was 4.57 µM and the GI50 [2, 30] was 3.4 µM. It also gave a GI50 [2, 31] of 3.39 µM, a GI50 [3, 30] of 1.93 µM and a GI50 [3, 31] of 1.95 µM. The GI50 [4, 30] was 5.15 µM, the GI50 [4, 31] was 5.13 µM and the GI50 [5, 30] was 4.25 µM. It also gave a GI50 [5, 31] of 4.27 µM, a GI50 [6, 32] of 3.84 µM and a GI50 [6, 33] of 3.8 µM. It also gave a GI50 [7, 34] of 2.35 µM, a GI50 [7, 35] of 2.34 µM and a GI50 [8, 30] of 2.44 µM. It also gave a GI50 [8, 31] of 2.45 µM, a GI50 [9, 30] of 5.14 µM and a GI50 [9, 31] of 5.13 µM. The GI50 [10, 36] was 4.47 µM, the GI50 [10, 37] was 4.42 µM and the GI50 [11, 30] was 3.18 µM. The GI50 [11, 31] was 3.16 µM, the GI50 [12, 30] was 5.25 µM and the GI50 [12, 31] was 5.25 µM. For the same compound, the GI50 [13, 30] was 4.1 µM, the GI50 [13, 31] was 4.07 µM and the GI50 [14, 30] was 3.23 µM. The GI50 [14, 31] was 3.24 µM, the GI50 [15, 38] was 2.56 µM and the GI50 [15, 31] was 2.57 µM. For the same compound, the GI50 [16, 30] was 6.08 µM, the GI50 [16, 31] was 6.03 µM and the GI50 [17, 30] was 4.97 µM. For the same compound, the GI50 [17, 31] was 5.01 µM, the GI50 [18, 30] was 1.35 µM and the GI50 [18, 31] was 1.35 µM. The GI50 [19, 39] was 5.85 µM, the GI50 [19, 40] was 5.89 µM and the GI50 [20, 30] was 3.4 µM. The GI50 [20, 31] was 3.39 µM, the GI50 [21, 30] was 13.9 µM and the GI50 [21, 31] was 13.8 µM. For the same compound, the GI50 [22, 30] was 2.03 µM, the GI50 [22, 31] was 2.04 µM and the GI50 [23, 30] was 4.77 µM. It also gave a GI50 [23, 31] of 4.79 µM, a GI50 [24, 30] of 5.84 µM and a GI50 [24, 31] of 5.89 µM. The GI50 [25, 30] was 4.73 µM, the GI50 [25, 31] was 4.68 µM and the GI50 [26, 30] was 2.5 µM. It also gave a GI50 [26, 31] of 2.51 µM, a GI50 [27, 41] of 3.45 µM and a GI50 [27, 42] of 3.47 µM. It also gave a GI50 [28, 30] of 13.3 µM, a GI50 [28, 31] of 13.2 µM and a GI50 [29, 30] of 3.96 µM. For the same compound, the GI50 [29, 31] was 3.98 µM.
`COc1cc(/C=C/C(=O)c2cccc(-n3cc(-c4ccc(Cl)cc4)[nH]c3=O)c2)ccc1O` [3f, 4-(4-chlorophenyl)-1-3-[(E)-3-(4-hydroxy-3-methoxyphenyl)-2-propenoyl]phenyl-2,3-dihydro-1H-2-imidazolone] showed a GI50 [1, 30] of 2.07 µM, a GI50 [1, 31] of 2.09 µM and a GI50 [2, 30] of 2.19 µM. It also gave a GI50 [2, 31] of 2.19 µM, a GI50 [3, 30] of 1.46 µM and a GI50 [3, 31] of 1.45 µM. For the same compound, the GI50 [4, 30] was 2.84 µM, the GI50 [4, 31] was 2.82 µM and the GI50 [5, 30] was 4.67 µM. It also gave a GI50 [5, 31] of 4.68 µM, a GI50 [6, 32] of 2.97 µM and a GI50 [6, 33] of 2.95 µM. For the same compound, the GI50 [7, 34] was 1.42 µM, the GI50 [7, 35] was 1.41 µM and the GI50 [8, 30] was 1.63 µM. The GI50 [8, 31] was 1.62 µM, the GI50 [9, 30] was 2.86 µM and the GI50 [9, 31] was 2.88 µM. It also gave a GI50 [10, 36] of 3.09 µM, a GI50 [10, 37] of 3.06 µM and a GI50 [11, 30] of 2.3 µM. For the same compound, the GI50 [11, 31] was 2.29 µM, the GI50 [12, 30] was 3.87 µM and the GI50 [12, 31] was 3.89 µM. The GI50 [13, 30] was 2.77 µM, the GI50 [13, 31] was 2.75 µM and the GI50 [14, 30] was 3.9 µM. It also gave a GI50 [14, 31] of 3.89 µM, a GI50 [15, 38] of 2.28 µM and a GI50 [15, 31] of 2.29 µM. The GI50 [16, 30] was 4.64 µM, the GI50 [16, 31] was 4.68 µM and the GI50 [17, 30] was 4.18 µM. It also gave a GI50 [17, 31] of 4.17 µM, a GI50 [18, 30] of 1.33 µM and a GI50 [18, 31] of 1.32 µM. The GI50 [19, 39] was 6.4 µM, the GI50 [19, 40] was 6.46 µM and the GI50 [20, 30] was 2.5 µM. It also gave a GI50 [20, 31] of 2.51 µM, a GI50 [21, 30] of 10.5 µM and a GI50 [21, 31] of 10.5 µM. The GI50 [22, 30] was 2.06 µM, the GI50 [22, 31] was 2.04 µM and the GI50 [23, 30] was 3.19 µM. The GI50 [23, 31] was 3.16 µM, the GI50 [24, 30] was 3.17 µM and the GI50 [24, 31] was 3.16 µM. For the same compound, the GI50 [25, 30] was 2.75 µM, the GI50 [25, 31] was 2.75 µM and the GI50 [26, 30] was 2 µM. The GI50 [26, 31] was 2 µM, the GI50 [27, 41] was 2.23 µM and the GI50 [27, 42] was 2.24 µM. It also gave a GI50 [28, 30] of 8.69 µM, a GI50 [28, 31] of 8.71 µM and a GI50 [29, 30] of 2.74 µM. For the same compound, the GI50 [29, 31] was 2.75 µM.
